Like-named read-outs stand apart in the source and are kept apart here.
Tests used:
[1] = rat, in vivo
Source text: (§1) A rapid, sensitive, and reliable method by the UFLC-Q-TOF-MS/MS system was used to identify the chemical profiling of BHGZD as described in Supplementary Materials Section 9 ([30]). The reference standards of these compounds ( Supplementary Table S2 ) were purchased from Chengdu Must Bio-technology Co., Ltd. (Chengdu, China), the National Institute for the Control of Pharmaceutical and Biological Products (Beijing, China), and Chengdu DeSiTe Biological Technology Co., Ltd. (Chengdu, China).
(§2) Sciex, Forster City, USA) with electrospray ionization source (ESI). Kinetex C18 column
(§3) (Phenomenex, 3.0×150 mm, 2.6μm, 100Å) was used to perform chromatographic
(§4) separation with a flow rate of 0.3mL/min at 40℃. A linear gradient program with mobile
(§5) phase system including solvent A (deionized water with 0.1% formic acid, v/v) and solvent
(§6) B (methanol) was described in details: solvent B (5~95%) for 40min, isocratic eluted at
(§7) 95% B for 5min，95%~5% B (40-45min), followed a post-run of 2min to equilibrate the
(§8) The instrumental settings of Q-TOF-MS/MS were described in the previous study
(§9) (9).Samples were analyzed in both positive and negative ionization modes with scanning
(§10) mas-to-charge (m/z) range from 50 to 1500. Data was collected in information-dependent
(§11) acquisition (IDA) mode and analyzed by PeakView® 2.2 software (AB Sciex, Foster City,
(§12) Chemical identifications were based on reference standards and mass spectral
(§13) library (Natural Products HR-MS/MS Spectral Library, Version 1.0, AB Sciex, Forster City,

recombinant AKT1 protein = molecular target: T1, recombinant AKT1 protein (Homo sapiens, UniProt P31749); test: Surface plasmon resonance (SPR) binding assay; conditions: Biacore 8K, read-out: mean KD, MG–AKT
T1 construct: His tag; purchased Abcam ab116412
Procedure: To confirm the binding affinity of recombinant AKT1 protein and MG, SPR assay was performed with Biacore 8K (Biacore, Cytiva), and the K D value was calculated using the Biacore 8K evaluation software 2.0 (GE Healthcare). Detailed information on SPR assay is provided in Supplementary Materials Section 11 . […]
compound was greater than 9.0×106cm/s and 40% which indicated drug-like […]
Section 11 Surface plasmon resonance (SPR) assay
SPR binding assays were analyzed with Biacore 8K (Biacore, Cytiva). Materials and reagents used in SPR assays were purchased from Cytiva. The histidine-tagged AKT1 (Cat No. ab116412, Abcam, Cambridge, UK) was immobilized on the surface of Carboxymethylated (CM5) sensor chip through the standard amino coupling method. The carboxyl groups of the sensor surface were activated by injection of a solution containing 0.2M N-ethyl-N9-(3-dimethylaminopropyl) carbodiimide (EDC) and 0.05M N-hydroxysuccinimide (NHS), AKT1 in 10mM sodium acetate buffer was then injected at a flow rate of 10μL/min to couple to the sensor surface, and the remaining active sites in the […]
Sensor chips were primed twice with degassed physiological running buffer (PBS buffer). A reference flow cell was activated and blocked in the absence of AKT1. […]

[2] = Chemical profiling of BHGZD in sera (UFLC-Q-TOF-MS/MS); conditions: 30 min after the treatment of BHGZD
Source text: as §1, §2, §3, §4, §5, §6, §7, §8, §9, §10, §11, §12, §13

MH7A cells = test: LPS/ATP-induced pyroptosis in MH7A cells (TUNEL, immunofluorescence, Western blotting, ELISA); format: cell-based, human
Source text: (§14) Mouse macrophage cell line (RAW264.7 cells, Bio-Swamp, Wuhan, China) and fibroblast-like synoviocytes in patients with RA (MH7A cells, Riken cell bank, Ibaraki, Japan) at passage numbers four to eight were used in the current experiment validations.
The conventional NLRP3 inflammasome activation cellular model was induced by lipopolysaccharide [LPS, Escherichia coli (O111:B4), Sigma-Aldrich, St Louis, MO, USA] and adenosine triphosphate (ATP disodium salt hydrate, Sigma-Aldrich, St Louis, MO, USA) as in our previous study ([22]) ( Supplementary Materials Section 15 ).
(§15) The concentration of DMSO was less than 1‰ of the solution for the in vitro experiment.
The occurrence of pyroptosis in both MH7A cells and synovium tissues in AIA-M rats was determined by in situ TUNEL staining (TUNEL Andy Fluor™ 594 Apoptosis Detection Kit, ABP Biosciences, Wuhan, China) in accordance with the manufacturer’s protocol. Fluorescence images were visualized and photographed with inverted fluorescence microscopes (MF53, MSHOT, Guangzhou, China; Olympus, BX51, Tokyo, Japan).
Double fluorescence staining was performed as described previously ([22]) ( Supplementary Materials Section 20 ). The images were visualized and photographed with a confocal microscope (Zeiss LSM 880, Carl Zeiss, Jena, Germany) or an inverted fluorescence microscope (MF53, MSHOT, Guangzhou, China).
To evaluate the regulation of BHGZD on the candidate targets in arthritic tissue samples, as well as RAW264.7 and MH7A cells, Western blotting analysis was carried out following the protocol as in our previous studies ([21], [24], [29]). TLR4, phospho-PI3K (p-PI3K), PI3K, p-AKT, p-NFκB-p65, NFκB-p65, NLRP3, ASC, caspase-1, the N-terminal domain of GSDMD (GSDMD-NT), and IL-1β antibodies were used as shown in Supplementary Table S3 . GAPDH (GAPDH Mouse monoclonal antibody, Abcam, Cambridge, UK) and β-actin (Anti-beta-Actin/β-Actin Antibody, Boster Biological Technology, California, USA) were used as loading controls for arthritic tissue samples and cultured cells, respectively.
(§16) To evaluate the therapeutic effects of two BACs from BHGZD on the regulation of the “immune-inflammation” system, the levels of cytokines, proteins, and LDH release in RAW264.7 and MH7A cellular supernatant, as well as the sera of AIA-M rats were determined using enzyme-linked immunosorbent assay (ELISA) to assess the integrity of membranes in accordance with the manufacturer’s guidelines.
(§17) To induce a conventional NLRP3 inflammasome activation, Raw264.7cells was induced
(§18) with 0.2μg/mL lipopolysaccharide [LPS, Escherichia coli (O111:B4), Sigma-Aldrich, St
(§19) Louis, MO, USA] for 4h, followed with a 3mM ATP adenosine triphosphate (ATP disodium
(§20) salt hydrate, Sigma-Aldrich, St Louis, MO, USA) for 1h of incubation at 37℃ with 5% CO2
(§21) For MH7A cells LPS/ATP-induced pyrotosis, MH7A cells were induced with 1μg/mL LPS
(§22) for 6h, followed with a 3mM ATP for 1h of incubation at 37℃ with 5% CO2 (11).

RAW264.7 cells [3] = test: Cell viability, CCK-8 assay; format: cell-based, mouse; conditions: 0.21–6.74 ng/ml MG or 0.02–0.52 ng/ml CA treatment alone
Procedure: Cell viability was analyzed with the cell counting kit-8 (CCK-8) assay kit (Beyotime Biotechnology, Shanghai, China) as described in Supplementary Materials Section 16 .
Section 16 Cell proliferation assay
Cell viability was analyzed with Cell Counting Kit-8 (CCK-8) assay kit (Beyotime Biotechnology, China). Raw264.7 cells were seeded into 96-well plate, and after […]
solution was added to each well. The absorbance was measured after 4h of incubation at […]
Section 17 Flow cytometry
To identify and quantify of pyroptosis population of Raw264.7 cells, FITC Apoptosis Detection kit I staining with both the Annexin V-fluorescein isothiocyanate and propidium iodide (PI, BD Biosciences, San Jose, CA, USA) was used in accordance with manufacturer's guidelines. Briefly, Raw264.7 cells was washed twice with cold PBS and then resuspended in 1×binding buffer at a concentration of 1x10^6 cells/mL. Then, 100µL of the solution (1x10^5 cells) was transferred to a 5 mL culture tube. Subsequently, 5µL of FITC Annexin V and 5µL PI were added into cultured tube, and vortexed and incubated for 15 min at room temperature in the dark. Finally, 400µL 1×binding buffer was added into each tube, and analyzed by flow cytometry (ACEA Bioscience, San Diego, CA, USA) and NovoExpress 1.4.1 software (ACEA Bioscience, San Diego, CA, USA) within 1h.

RAW264.7 cells [4] = test: LPS/ATP-induced pyroptosis in RAW264.7 cells (flow cytometry, FAM-FLICA, immunofluorescence, Western blotting, ELISA); format: cell-based, mouse
Source text: as §14, §15
Fluorescence images were visualized and photographed with a confocal microscope (Zeiss LSM 880, Carl Zeiss, Jena, Germany).
The images were visualized and photographed with a confocal microscope (Zeiss LSM 880, Carl Zeiss, Jena, Germany) or an inverted fluorescence microscope (MF53, MSHOT, Guangzhou, China).
as §16
Raw264.7 cells were maintained in DMEM (Hyclone, Logan, UT, USA), supplemented
100μg/mL streptomycin and 2mM L-glutamine (TBD, Tianjin, China) in a humidified 5%
CO2 incubator at the temperature of 37℃. The Raw264.7 cells at passage numbers four
to eight were used in the current experiment validations.
MH7A cells were cultured in sterile synoviocyte growth medium (Cell Applicatio ns, Inc.,
L-glutamine (TBD, Tianjin, China) in a humidified 5% CO2 incubator at the temperature of
37℃. MH7A at passage numbers four to eight were used in the current experiment
as §17, §18, §19, §20, §21, §22

[5] = In vivo pharmacokinetic analysis of MG and CA after oral BHGZD (UHPLC-QTRAP-MS/MS); conditions: rat plasma after oral BHGZD 21.4 g/kg each day, n = 3
Procedure: The pharmacokinetic parameters were calculated by Drug and Statistic software (Shanghai, China). Detailed information on the collection of blood samples and UHPLC-QTRAP-MS/MS conditions is provided in Supplementary Materials Section 13 . […]
Section 13 Pharmacokinetic analysis […]
administration of BHGZD, ultra-fast liquid chromatography coupled with triple quadrupole-linear ion trap composite mass spectrometry (UHPLC-QTRAP-MS/MS) system was […]
Bioanalytical Method Validation issued by Chinese Pharmacopoeia Commission in 2020.
The pharmacokinetic parameters were calculated by Drug and Statistic software […]
1) Collection of blood samples
Male Lewis rats (n=6, 6-8 weeks-old, 200±20g in weight) were purchased from Beijing Vital River Laboratory Animal Technology Co., Ltd. (SCCK 2016-0006, Beijing, China; n=3 per group, including normal control group and normal control+BHGZD treatment group).
Diet was prohibited for 12h before the experiment but water was freely available. Blood samples (~0.25mL) were collected from the retinal venous plexus into heparinized 1.5mL polythene tubes before administration and 0, 0.25, 0.5, 1, 2, 3, 4, 6, 8,12 and 24h after administration of BHGZD. The plasma samples were obtained after centrifuging at 12000rpm for 15min, and stored at -20℃ prior to analysis.
2) UHPLC-QTRAP-MS/MS conditions
Quantification analysis were performed on an ultra-high-performance liquid chromatography (Shimadzu Corp., Japan) tandem ion trap quadrupole QTRAP 6500 plus mass spectrometry (AB Sciex, USA). Chromatographic separation was conducted using a Poroshell 120 EC-C18 column (3.0×50mm, 2.7μm) at 40℃. The mobile phase was consisted of 0.1% formic acid–water (v/v, A) and methanol (B) and elution program were:
Mass spectrometry detector were conducted in negative mode and the detecting parameters were set as follows: curtain gas, 35 psi; collision gas, medium; ionspray voltage, 4500 V; temperature, 550℃; ion source gas 1 and 2, 55psi. Quantitative ion pairs were optimized for MG: m/z 421.2-301.1 (declustering potential: 63V, CE: 30eV) and for […]
Data acquisition and analysis

[6] = LPS/ATP-induced MH7A cells, all p < 0.05
[7] = LPS/ATP-induced, BHGZD 28.54 μg/ml, MG 1.69 ng/ml, CA 0.13 ng/ml, 24 h
[8] = LPS/ATP-induced RAW264.7 cells, all p < 0.05

T1 sequence (P31749 whole entry): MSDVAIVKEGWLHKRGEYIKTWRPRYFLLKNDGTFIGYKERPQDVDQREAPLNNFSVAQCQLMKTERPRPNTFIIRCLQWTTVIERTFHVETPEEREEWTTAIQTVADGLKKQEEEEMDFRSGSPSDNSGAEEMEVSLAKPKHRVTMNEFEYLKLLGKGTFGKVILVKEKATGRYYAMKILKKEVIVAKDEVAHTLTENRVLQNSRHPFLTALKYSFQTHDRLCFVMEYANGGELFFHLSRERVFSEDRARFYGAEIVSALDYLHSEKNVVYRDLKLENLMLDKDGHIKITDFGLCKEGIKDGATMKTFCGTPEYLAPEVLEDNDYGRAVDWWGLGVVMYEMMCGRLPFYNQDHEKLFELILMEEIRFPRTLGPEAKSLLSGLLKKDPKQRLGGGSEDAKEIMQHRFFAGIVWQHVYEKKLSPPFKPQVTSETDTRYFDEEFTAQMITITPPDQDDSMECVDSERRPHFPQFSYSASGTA

COc1cc2c(=O)c3c(O)c([C@@H]4O[C@H](CO)[C@@H](O)[C@H](O)[C@H]4O)c(O)cc3oc2cc1O [7-O-methyl mangiferin]
quantitative detection in sera after the treatment of BHGZD [1]: detected

O=c1c2cc(O)c(O)cc2oc2cc(O)c([C@@H]3O[C@H](CO)[C@@H](O)[C@H](O)[C@H]3O)c(O)c12 [MG, mangiferin]
Kd (recombinant AKT1 protein): 38.3 µM
quantitative detection in sera after the treatment of BHGZD [2]: detected
GSDMD-NT (MH7A cells; LPS/ATP-induced MH7A cells, Western blotting): decreased
expression levels of NLRP3, ASC, and caspase-1 (MH7A cells; [6]): reduced
levels of IL-1β, IL-18, and LDH release in the supernatant (MH7A cells; [6]): reduced
number of TUNEL-positive MH7A cells (MH7A cells; [7]): reduced
cell viability (CCK8) (RAW264.7 cells [3]): no cell toxicity
GSDMD-NT (RAW264.7 cells [4]; LPS/ATP-induced RAW264.7 cells, Western blotting): decreased
expression levels of NLRP3, ASC, and caspase-1 (RAW264.7 cells [4]; [8]): reduced
levels of IL-1β, IL-18, and LDH release in the supernatant (RAW264.7 cells [4]; [8]): reduced
PI positive cell rate (RAW264.7 cells [4]; LPS/ATP-induced, 1.69 ng/ml MG, 0.13 ng/ml CA, 24 h, inferior to BHGZD, all p < 0.05): prominently reduced
number of FLICA-positive RAW264.7 cells (RAW264.7 cells [4]; [7]): reduced
inhibition on cell pyroptosis induced by LPS/ATP, alone versus combination (RAW264.7 cells [4]; RAW264.7 and MH7A cells, all p < 0.05): weaker than that in the two-BAC combination treatment group
Cmax ([5]; male, Lewis, rat, plasma, po, 21.4 g/kg, non-compartment model, read-out: Cmax): 132 ng/mL
AUC(0-t) ([5]; male, Lewis, 0-24 h): 578 ± 183 ng·h/mL
half-life ([5]; male, Lewis, apparent elimination half-life, read-out: t1/2z (converted)): 1.26 ± 0.23 h
AUC(0-inf) ([5]; male, Lewis): 579 ± 182 ng·h/mL
MRT last ([5]; male, Lewis, read-out: MRT(0-t)): 4.23 ± 0.3 h
MRT inf ([5]; male, Lewis, read-out: MRT(0-∞)): 4.25 ± 0.28 h
Tmax ([5]; male, Lewis, non-compartment model): 4 h
Cmax ([5]; non-compartment model, listed as Mangiferin (MG)): 132.07 ± 44.67 ng/mL

COc1ccc(-c2coc3cc(O)ccc3c2=O)cc1 [formononetin]
quantitative detection in sera after the treatment of BHGZD [2]: detected

CC1(C)[C@@H](O[C@H]2O[C@H](C(=O)O)[C@@H](O)[C@H](O)[C@H]2O[C@@H]2O[C@H](C(=O)O)[C@@H](O)[C@H](O)[C@H]2O)CC[C@]2(C)[C@H]3C(=O)C=C4[C@@H]5C[C@@](C)(C(=O)O)CC[C@]5(C)CC[C@@]4(C)[C@]3(C)CC[C@@H]12 [glycyrrhizic acid]
quantitative detection in sera after the treatment of BHGZD [2]: detected

O=C(/C=C/c1ccc(O[C@@H]2O[C@H](CO)[C@@H](O)[C@H](O)[C@H]2O)cc1)c1ccc(O)cc1O [isoliquiritin]
quantitative detection in sera after the treatment of BHGZD [2]: detected

O=c1cc(-c2ccc(O)cc2)oc2c([C@@H]3O[C@H](CO)[C@@H](O)[C@H](O)[C@H]3O)c(O)c([C@@H]3OC[C@H](O)[C@H](O)[C@H]3O)c(O)c12 [isoschaftoside]
quantitative detection in sera after the treatment of BHGZD [2]: detected

O=c1cc(-c2ccc(O)cc2)oc2cc(O)c([C@@H]3O[C@H](CO)[C@@H](O)[C@H](O)[C@H]3O)c(O)c12 [isovitexin]
quantitative detection in sera after the treatment of BHGZD [2]: detected

O=C1C[C@@H](c2ccc(O)cc2)Oc2cc(O)ccc21 [liquiritigenin]
quantitative detection in sera after the treatment of BHGZD [2]: detected

O=c1c2cc(O[C@@H]3O[C@H](CO)[C@@H](O)[C@H](O)[C@H]3O)c(O)cc2oc2cc(O)c([C@@H]3O[C@H](CO)[C@@H](O)[C@H](O)[C@H]3O)c(O)c12 [neomangiferin]
quantitative detection in sera after the treatment of BHGZD [2]: detected

C[C@@H](CC[C@@]1(O)O[C@H]2C[C@H]3[C@@H]4CC[C@@H]5C[C@@H](O[C@@H]6O[C@H](CO)[C@H](O)[C@H](O)[C@H]6O[C@@H]6O[C@H](CO)[C@@H](O)[C@H](O)[C@H]6O)CC[C@]5(C)[C@H]4CC[C@]3(C)[C@H]2[C@@H]1C)CO[C@@H]1O[C@H](CO)[C@@H](O)[C@H](O)[C@H]1O [timosaponin B II]
quantitative detection in sera after the treatment of BHGZD [2]: detected

O=c1cc(-c2ccc(O)cc2)oc2c([C@@H]3O[C@H](CO)[C@@H](O)[C@H](O)[C@H]3O)c(O)cc(O)c12 [vitexin]
quantitative detection in sera after the treatment of BHGZD [2]: detected

anemarrhensaponin I
quantitative detection in sera after the treatment of BHGZD [2]: detected

— article PMC9253268 (Frontiers in Immunology, 2022)
